From PubChem BioAssay AID330 (DTP/NCI, 2004)
Values joined by “and” are separate entries in the source; they are usually repeats but may differ in a detail not shown here. Equal entries are not always repeated. Inconclusive results and toxic doses are left out.

Tested on: P388 leukemia ip, CD2F1 mice, survival T/C
Assay: NCI In Vivo Anticancer Drug Screen. Data for tumor model P388 Leukemia (intraperitoneal) in CD2F1 (CDF1) mice
Conditions: endpoint: median survival time, higher = longer survival
How it was run: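 Mice carrying the transplanted tumor received test compound or vehicle. Survival was recorded in each group, and the value is the treated-group measurement divided by that of the vehicle-treated control group.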

[1] = dose: 50.0 mg/kg/injection, schedule: Q01DX005 (ip), vehicle: Klucel (hydroxypropylcellulose) (HPC)
[2] = dose: 100.0 mg/kg/injection, schedule: Q01DX005 (ip), vehicle: Klucel (hydroxypropylcellulose) (HPC)
[3] = dose: 200.0 mg/kg/injection, schedule: Q01DX005 (ip), vehicle: Klucel (hydroxypropylcellulose) (HPC)
[4] = dose: 50.0 mg/kg/injection, schedule: Q04DX003 (ip), vehicle: saline with Tween-80

`CC(C)/C=C1\C(=O)NCC(=O)N1Cc1ccccc1` was tested, and the T/C (dose: 75.0 mg/kg/injection, schedule: Q01DX001 (ip), vehicle: Klucel (hydroxypropylcellulose) (HPC)) was 103 % of control, the T/C (dose: 150.0 mg/kg/injection, schedule: Q01DX001 (ip), vehicle: Klucel (hydroxypropylcellulose) (HPC)) was 100 % of control and the T/C (dose: 300.0 mg/kg/injection, schedule: Q01DX001 (ip), vehicle: Klucel (hydroxypropylcellulose) (HPC)) was 94 % of control.
For `[N-]=[N+]=Nc1ccc(NCCN2C(=O)C=CC2=O)c([N+](=O)[O-])c1`, the T/C (dose: 50.0 mg/kg/injection, schedule: Q01DX005 (ip), vehicle: saline with Tween-80) was 103 % of control, the T/C (dose: 100.0 mg/kg/injection, schedule: Q01DX005 (ip), vehicle: saline with Tween-80) was 101 % of control and the T/C (dose: 200.0 mg/kg/injection, schedule: Q01DX005 (ip), vehicle: saline with Tween-80) was 101 % of control.
`CCCCN(CCCC)C(=N)c1c2ccccc2nc2ccccc12` was tested, and the T/C (dose: 6.25 mg/kg/injection, schedule: Q01DX005 (ip), vehicle: saline) was 90 % of control, the T/C (dose: 12.5 mg/kg/injection, schedule: Q01DX005 (ip), vehicle: saline) was 97 % of control and the T/C (dose: 25.0 mg/kg/injection, schedule: Q01DX005 (ip), vehicle: saline) was 103 % of control.
With `Cc1nc(Nc2ccccc2)c2c(C)c[nH]c2n1` the T/C [1] was 100 % of control and the T/C [2] was 94 % of control.
In the case of `CC1(C)OC(=O)C(=Cc2ccc(-c3ccccc3[N+](=O)[O-])o2)C(=O)O1`, the T/C [1] is reported as 92 % of control, the T/C [2] is reported as 105 % of control and the T/C [3] is reported as 100 % of control.
For `[O-]c1n[n+](-c2ccccc2)ns1`, the T/C (dose: 3.13 mg/kg/injection, schedule: Q01DX009 (ip), vehicle: distilled water + Tween-80) was 99 % of control and 106 % of control, the T/C (dose: 6.25 mg/kg/injection, schedule: Q01DX009 (ip), vehicle: distilled water + Tween-80) was 99 % of control and 101 % of control and 114 % of control and the T/C (dose: 12.5 mg/kg/injection, schedule: Q01DX009 (ip), vehicle: distilled water + Tween-80) was 100 % of control and 105 % of control and 124 % of control. The T/C (dose: 25.0 mg/kg/injection, schedule: Q01DX009 (ip), vehicle: distilled water + Tween-80) was 99 % of control and 115 % of control and 92 % of control.
For `NC(=S)N/N=C/c1ccnnc1`, the T/C (dose: 3.12 mg/kg/injection, schedule: Q04DX003 (ip), vehicle: saline) was 104 % of control and 97 % of control, the T/C (dose: 6.25 mg/kg/injection, schedule: Q04DX003 (ip), vehicle: saline) was 100 % of control and 97 % of control and the T/C (dose: 12.5 mg/kg/injection, schedule: Q04DX003 (ip), vehicle: saline) was 104 % of control and 108 % of control. For the same compound, the T/C (dose: 25.0 mg/kg/injection, schedule: Q04DX003 (ip), vehicle: saline) was 98 % of control and 100 % of control, the T/C (dose: 25.0 mg/kg/injection, schedule: Q04DX003 (ip), vehicle: suspension in saline) was 99 % of control and the T/C (dose: 100.0 mg/kg/injection, schedule: Q04DX003 (ip), vehicle: saline) was 103 % of control. For the same compound, the T/C (dose: 200.0 mg/kg/injection, schedule: Q04DX003 (ip), vehicle: saline) was 97 % of control and the T/C (dose: 400.0 mg/kg/injection, schedule: Q04DX003 (ip), vehicle: saline) was 97 % of control.
With `C[As](C)SCCC(CCCCC(=O)O)S[As](C)C` (stereo unspecified) the T/C (dose: 12.5 mg/kg/injection, schedule: Q01DX009 (ip), vehicle: Klucel (hydroxypropylcellulose) (HPC)) was 109 % of control and 111 % of control, the T/C (dose: 25.0 mg/kg/injection, schedule: Q01DX009 (ip), vehicle: Klucel (hydroxypropylcellulose) (HPC)) was 122 % of control and the T/C (dose: 25.0 mg/kg/injection, schedule: Q04DX003 (ip), vehicle: saline with Tween-80) was 106 % of control. For the same compound, the T/C (dose: 50.0 mg/kg/injection, schedule: Q01DX009 (ip), vehicle: Klucel (hydroxypropylcellulose) (HPC)) was 100 % of control, the T/C [4] was 97 % of control and the T/C (dose: 100.0 mg/kg/injection, schedule: Q04DX003 (ip), vehicle: saline with Tween-80) was 108 % of control.
For `N#CC1CCCC(Cc2ccccc2)(c2ccccc2)C1=O` (stereo unspecified), the T/C (dose: 100.0 mg/kg/injection, schedule: Q01DX001 (ip), vehicle: Klucel (hydroxypropylcellulose) (HPC)) was 101 % of control, the T/C (dose: 200.0 mg/kg/injection, schedule: Q01DX001 (ip), vehicle: Klucel (hydroxypropylcellulose) (HPC)) was 102 % of control and the T/C (dose: 400.0 mg/kg/injection, schedule: Q01DX001 (ip), vehicle: Klucel (hydroxypropylcellulose) (HPC)) was 100 % of control.
`COC(=O)C(CCCCNC(=O)OCc1ccccc1)NC(=O)C(Cc1ccccc1)NC(=O)OC(C)(C)C` (stereo unspecified) was tested, and the T/C [1] was 99 % of control, the T/C [2] was 97 % of control and the T/C [3] was 99 % of control.
`Cc1nnc2c3[nH]c4ccccc4c3cnn12` was tested, and the T/C (dose: 60.0 mg/kg/injection, schedule: Q01DX005 (ip), vehicle: saline) was 104 % of control, the T/C (dose: 120.0 mg/kg/injection, schedule: Q01DX005 (ip), vehicle: saline) was 95 % of control and the T/C (dose: 240.0 mg/kg/injection, schedule: Q01DX005 (ip), vehicle: saline) was 103 % of control.
`Clc1cc2c(cc1CO/N=C\c1ccc3c(c1)OCO3)OCO2` was tested, and the T/C (dose: 50.0 mg/kg/injection, schedule: Q04DX003 (ip), vehicle: saline sonified) was 90 % of control, the T/C (dose: 100.0 mg/kg/injection, schedule: Q04DX003 (ip), vehicle: saline sonified) was 95 % of control and the T/C (dose: 200.0 mg/kg/injection, schedule: Q04DX003 (ip), vehicle: saline sonified) was 90 % of control.
In the case of `COc1cc(C=Nc2cc(Cl)ccc2-n2ccnc2C)ccc1N(CCCl)CCCl`, the T/C [4] is reported as 222 % of control and the T/C (dose: 200.0 mg/kg/injection, schedule: Q04DX003 (ip), vehicle: saline with Tween-80) is reported as 88 % of control.
